The values that follow come from patent US4883666A, “Controlled drug delivery system for treatment of neural disorders” (Massachusetts Institute of Technology, priority 1987, dated 1989).

The nature of series [1]: Intracerebral dialysis: extracellular fluid dopamine levels in the striatum after implantation of dopamine containing EVA pellets. As for the experimental part: Male Sprague-Dawley Ras (150-200 g) were anaesthetized with pentobarbitone (60 mg/kg) and placed in a David Kopf stereotaxic frame. The skull was exposed and a 4 mm diameter hole drilled centered at coordinates A +0.4 mm and R 2.6 mm using the Paxinos and Watson coordinates. The right cortex was aspirated using a mild vacuum down to the striatal surface (ventral - 3 mm). Pellets were implanted with the uncoated pore, when present, facing ventrally and imbedded in the body of the striatum. Both control, non-dopamine containing pellets, and dopamine containing (2 mg) pellets were implanted. In vivo release was measured on the third, twentieth and sixty-fifth days. Intracerebral Dialysis Method:
Rats were anaesthetized with pentobarbitone (60 mg/kg) and placed in the Kopf stereotaxic frame. The skull was exposed and a Carnegie Medicin dialysis probe (4 mm membrane length, 0.5 mm o.d., 5,000 m.w. cut off) implanted into the striatum at Paxinos and Watson coordinates A +2.1, R (or L) 1.9, V -7 mm. Probes were perfused with an artificial CSF medium, 1 mM Ca, pH 7.35, at a flow rate of 1.5 microliter/min using a CMA 100 pump. Fifteen minute samples were collected into 5 microliters of 0.5M perchloric acid. The probe was calibrated by measuring the recovery of standards of known concentration, 100 nM. Dialysates were immediately assayed by direct injection onto a highly sensitive reverse-phase, isocratic HPLC with an ESA 5100 coulochem detector. Chromatograms were completed within 11 minutes. After an initial period of "injury release", 60 to 90 minutes post probe implantation, stable concentrations of dopamine were measured for a minimum of three […] collections.
The first rat had probes inserted into the right striatum on the third and sixty-fifth days and in the left striatum on the sixty-fifth day post polymer implantation. The second rat had probes inserted into both the right and left striata on the twentieth day.

On series [2], the source says:
Ethylene vinyl acetate slabs containing 0%, 30%, 40% and 50% dopamine by weight formed by solvent casting as previously described were punched out to form round discs, approximately 3.0 mm in diameter. These discs were then coated by an additional layer of ethylene vinyl acetate either (i) completely; (ii) completely except for one concave pinhole present on one surface (iii) completely except for two concave pinholes present, one on each surface; (iv) partially, with one surface coated and the other not coated; or (v) not coated at all.
The release of dopamine into 5 ml of a 150 mM NaCI, 0.2% EDTA solution was monitored by measuring the absorbance at 280 nm of the solution at various time points and by comparison to a linear standard curve comparing absorbance at 280 nm to concentration of dopamine in the same buffered solution. The results are portrayed as either the absolute mass released over the time course of 65 days or as the amount of dopamine released as a fraction of the total amount present in the pellet.
Samples of these solutions were injected into High Pressure Liquid Chromatography system designed to measure absolute quantities of dopamine and to distinguish dopamine from its oxidation products or other metabolites.

The conditions of series [3]: both in vitro and in vivo; cited from earlier work.
The subject of another series is Parkinsonian patients. The settings on record: three patients; continuous i.v. infusion replacing oral levodopa; cited from earlier work.
The next series concerns Parkinson's disease. As to conditions: systemic application; cited from earlier work.
For another series, the system named is behavioral deficits. As to conditions: intracerebral injections; cited from earlier work.

Where two headings read alike, the source gives them in different places.

Consider `NCCc1ccc(O)c(O)c1` [dopamine], for which, in series [1] (not evident on third day, seen by twentieth day), the “persistence of dopamine release into the extracellular fluid of the implanted striatum” value is on record as “persists for at least two months”. Further, the “increase in dopamine levels” value in series [1] (rat, in vivo) was above 200 fold. The “dopamine concentration in the extracellular fluid (ECF)” value in series [1] (rat, in vivo, 28800 min) is given as 30.5 nM. Besides, the “dopamine level in the extracellular fluid (ECF)” value in series [1] (rat, in vivo, 93600 min) turned out to be 36 nM. Further, in series [1] (third day), the “level of dopamine in the right striatum relative to normal” value was “unchanged from normal”. In series [2] (High Pressure Liquid Chromatography of release solutions), the “substance released that was dopamine (not oxidation products or other metabolites), HPLC” value is on record as “greater than 99.9%”. Moreover, the release of dopamine entry is “linear release” in series [2] (coated fully except for one hole, 30% loading, up to 65 days in vitro); “the release is not linear” in series [2] (disc coated on one side, 30%, 40% or 50% dopamine); “no release of dopamine” in series [2] (disc containing 30%, 40% or 50% dopamine, fully coated, throughout the time period); “release occurred rapidly, in a non-linear manner” in series [2] (disc not coated, 30%, 40% or 50% dopamine); “Virtual linear release” in series [2] (fully coated except for two holes, 30% loading). In addition, the “initial release of dopamine (every thirty minutes over several hours)” value in series [2] (coated fully except for one hole, 40% dopamine) was “release is constant”. The “release from EVA over an extended period of time” value in series [3] is “linear, concentration and time-dependent release”.

With `N[C@@H](Cc1ccc(O)c(O)c1)C(=O)O` [L-dopa], the clinical response entry with Parkinsonian patients is “prolonged and stable clinical response”. In addition, the “behavioral symptoms of Parkinson's disease” value in the series on Parkinson's disease is on record as “can be reduced”.

Take Nerve Growth Factor: in the series with behavioral deficits, the behavioral deficits result is “reduces behavioral deficits”.
